In ChEMBL document CHEMBL1909294, “Translating clinical findings into knowledge in drug safety evaluation--drug induced liver injury prediction system (DILIps)” (PLoS Comput Biol, 2011):

Columns and labels:
Hepatotoxicity [1] = tested on: Hepatotoxicity;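 as to HepSE bilirubinemia: bilirubinemia hepatic side effect score drawn from the DILIps training data, a prediction system for drug-induced liver injury; call rule not given here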;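 as to HepSE cholecystitis: Cholecystitis-related hepatic side effect score drawn from the DILIps (drug-induced liver injury prediction) training data set; call rule not given here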;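 as to HepSE cholelithiasis: hepatic side effect score for cholelithiasis, drawn from the DILIps training data for predicting drug-induced liver injury; call rule not given here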;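 as to HepSE cirrhosis: cirrhosis hepatic side effect score taken from the DILIps (drug-induced liver injury prediction) training set; call rule not given here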;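 as to HepSE elevated liver function tests: hepatic side effect score for raised liver function tests, as recorded in the DILIps training set used for predicting drug-induced liver injury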; as to HepSE hepatic failure: call rule not given here;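 as to HepSE hepatomegaly: hepatic side effect score for hepatomegaly, taken from the training set of the DILIps drug-induced liver injury prediction system; call rule not given here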
Hepatotoxicity [2] = tested on: Hepatotoxicity; remark: listed apart in the source;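 as to HepSE bilirubinemia: bilirubinemia hepatic side effect score drawn from the DILIps training data, a prediction system for drug-induced liver injury; call rule not given here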;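 as to HepSE cholecystitis: Cholecystitis-related hepatic side effect score drawn from the DILIps (drug-induced liver injury prediction) training data set; call rule not given here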;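 as to HepSE cholelithiasis: hepatic side effect score for cholelithiasis, drawn from the DILIps training data for predicting drug-induced liver injury; call rule not given here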;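 as to HepSE cirrhosis: cirrhosis hepatic side effect score taken from the DILIps (drug-induced liver injury prediction) training set; call rule not given here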;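 as to HepSE elevated liver function tests: hepatic side effect score for raised liver function tests, as recorded in the DILIps training set used for predicting drug-induced liver injury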; as to HepSE hepatic failure: call rule not given here
Hepatotoxicity [3] = tested on: Hepatotoxicity; remark: listed apart in the source;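 as to HepSE bilirubinemia: bilirubinemia hepatic side effect score drawn from the DILIps training data, a prediction system for drug-induced liver injury; call rule not given here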;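 as to HepSE cholecystitis: Cholecystitis-related hepatic side effect score drawn from the DILIps (drug-induced liver injury prediction) training data set; call rule not given here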;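 as to HepSE cholelithiasis: hepatic side effect score for cholelithiasis, drawn from the DILIps training data for predicting drug-induced liver injury; call rule not given here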;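 as to HepSE cirrhosis: cirrhosis hepatic side effect score taken from the DILIps (drug-induced liver injury prediction) training set; call rule not given here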;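 as to HepSE elevated liver function tests: hepatic side effect score for raised liver function tests, as recorded in the DILIps training set used for predicting drug-induced liver injury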; as to HepSE hepatic failure: call rule not given here
Hepatotoxicity [4] = tested on: Hepatotoxicity; remark: listed apart in the source;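 as to HepSE bilirubinemia: bilirubinemia hepatic side effect score drawn from the DILIps training data, a prediction system for drug-induced liver injury; call rule not given here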;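 as to HepSE cholecystitis: Cholecystitis-related hepatic side effect score drawn from the DILIps (drug-induced liver injury prediction) training data set; call rule not given here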;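 as to HepSE cholelithiasis: hepatic side effect score for cholelithiasis, drawn from the DILIps training data for predicting drug-induced liver injury; call rule not given here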;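 as to HepSE cirrhosis: cirrhosis hepatic side effect score taken from the DILIps (drug-induced liver injury prediction) training set; call rule not given here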;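 as to HepSE elevated liver function tests: hepatic side effect score for raised liver function tests, as recorded in the DILIps training set used for predicting drug-induced liver injury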; as to HepSE hepatic failure: call rule not given here
Hepatotoxicity [5] = tested on: Hepatotoxicity; remark: listed apart in the source; as to HepSE hepatic failure: call rule not given here
Hepatotoxicity [6] = tested on: Hepatotoxicity; remark: listed apart in the source; as to HepSE hepatic failure: call rule not given here
Hepatotoxicity [7] = tested on: Hepatotoxicity; remark: listed apart in the source
Hepatotoxicity [8] = tested on: Hepatotoxicity; remark: listed apart in the source
Hepatotoxicity [9] = tested on: Hepatotoxicity; remark: listed apart in the source
Hepatotoxicity [10] = tested on: Hepatotoxicity; remark: listed apart in the source
Hepatotoxicity [11] = tested on: Hepatotoxicity; remark: listed apart in the source
Hepatotoxicity [12] = tested on: Hepatotoxicity; remark: listed apart in the source
Hepatotoxicity [13] = tested on: Hepatotoxicity; remark: listed apart in the source
Hepatotoxicity [14] = tested on: Hepatotoxicity; remark: listed apart in the source

Row | SMILES | HepSE_bilirubinemia (Hepatotoxicity [1]) | HepSE_cholecystitis (Hepatotoxicity [2]) | HepSE_cholelithiasis (Hepatotoxicity [3]) | HepSE_cirrhosis (Hepatotoxicity [4]) | HepSE_elevated liver function tests (Hepatotoxicity [5]) | HepSE_hepatic failure (Hepatotoxicity [6]) | HepSE_hepatic necrosis (Hepatotoxicity [7]) | HepSE_hepatitis (Hepatotoxicity [8]) | HepSE_hepatomegaly (Hepatotoxicity [9]) | HepSE_jaundice (Hepatotoxicity [10]) | HepSE_liver disease (Hepatotoxicity [11]) | HepSE_liver fatty (Hepatotoxicity [12]) | HepSE_liver function tests abnormal (Hepatotoxicity [13]) | HepSE_Combined Scores (Hepatotoxicity [14]) | further results
1 | Clc1ccc(COC(Cn2ccnc2)c2ccc(Cl)cc2Cl)cc1 (stereo not drawn) [ECONAZOLE] | 0 | 0 | 0 | 0 | 0 | 0 | 0 | 0 | 0 | 0 | 0 | 0 | 0 | 0 | 
2 | CC[C@@H]1/C=C(\C)C[C@H](C)C[C@H](OC)[C@H]2O[C@@](O)(C(=O)C(=O)N3CCCC[C@H]3C(=O)O[C@H](/C(C)=C/[C@@H]3CC[C@H](Cl)[C@H](OC)C3)[C@H](C)[C@@H](O)CC1=O)[C@H](C)C[C@@H]2OC [PIMECROLIMUS] | 0 | 0 | 0 | 0 | 0 | 0 | 0 | 0 | 0 | 0 | 0 | 0 | 0 | 0 | 
3 | CCCCCCCN(CC)CCCC(O)c1ccc(NS(C)(=O)=O)cc1 (stereo not drawn) [IBUTILIDE] | 0 | 0 | 0 | 0 | 1 | 0 | 0 | 0 | 0 | 0 | 0 | 0 | 0 | 1 | 
4 | COc1c(N2CCNC(C)C2)c(F)cc2c(=O)c(C(=O)O)cn(C3CC3)c12 (stereo not drawn) [GATIFLOXACIN] | 0 | 0 | 0 | 0 | 0 | 0 | 0 | 1 | 0 | 0 | 0 | 0 | 0 | 1 | 
5 | CNCCCC1c2ccccc2C=Cc2ccccc21 [PROTRIPTYLINE] |  |  |  |  |  |  |  |  |  |  |  |  |  |  | HepSE_bilirubinemia (Hepatotoxicity [1]; Liver): 0; HepSE_cholecystitis (Hepatotoxicity [2]; Liver): 0; HepSE_cholelithiasis (Hepatotoxicity [3]; Liver): 0; HepSE_cirrhosis (Hepatotoxicity [4]; Liver): 0; HepSE_elevated liver function tests (Hepatotoxicity [5]; Liver): 0; HepSE_hepatic failure (Hepatotoxicity [6]; Liver): 0; HepSE_hepatic necrosis (Hepatotoxicity [7]; Liver): 0; HepSE_hepatitis (Hepatotoxicity [8]; Liver): 0; HepSE_hepatomegaly (Hepatotoxicity [9]; Liver): 0; HepSE_jaundice (Hepatotoxicity [10]; Liver): 1; HepSE_liver disease (Hepatotoxicity [11]; Liver): 0; HepSE_liver fatty (Hepatotoxicity [12]; Liver): 0; HepSE_liver function tests abnormal (Hepatotoxicity [13]; Liver): 0; HepSE_Combined Scores (Hepatotoxicity [14]; Liver): 1
6 | CC(=O)/N=c1/sc(S(N)(=O)=O)nn1C [METHAZOLAMIDE] | 0 | 0 | 0 | 0 | 0 | 0 | 1 | 0 | 0 | 0 | 0 | 0 | 0 | 1 | 
7 | COc1ccc(C[C@@H]2c3cc(OC)c(OC)cc3CC[N@+]2(C)CCC(=O)OCCCCCOC(=O)CC[N@@+]2(C)CCc3cc(OC)c(OC)cc3[C@H]2Cc2ccc(OC)c(OC)c2)cc1OC | 0 | 0 | 0 | 0 | 0 | 0 | 0 | 0 | 0 | 0 | 0 | 0 | 0 | 0 | 
8 | CC(=O)[O-].[Na+] [SODIUM ACETATE] |  |  |  |  |  |  |  |  |  |  |  |  |  |  | HepSE_bilirubinemia (Hepatotoxicity [1]; Liver): 0; HepSE_cholecystitis (Hepatotoxicity [2]; Liver): 0; HepSE_cholelithiasis (Hepatotoxicity [3]; Liver): 0; HepSE_cirrhosis (Hepatotoxicity [4]; Liver): 0; HepSE_elevated liver function tests (Hepatotoxicity [5]; Liver): 0; HepSE_hepatic failure (Hepatotoxicity [6]; Liver): 0; HepSE_hepatic necrosis (Hepatotoxicity [7]; Liver): 0; HepSE_hepatitis (Hepatotoxicity [8]; Liver): 0; HepSE_hepatomegaly (Hepatotoxicity [9]; Liver): 0; HepSE_jaundice (Hepatotoxicity [10]; Liver): 0; HepSE_liver disease (Hepatotoxicity [11]; Liver): 0; HepSE_liver fatty (Hepatotoxicity [12]; Liver): 0; HepSE_liver function tests abnormal (Hepatotoxicity [13]; Liver): 0; HepSE_Combined Scores (Hepatotoxicity [14]; Liver): 0
9 | O=P(O)(O)O [PHOSPHORIC ACID] |  |  |  |  |  |  |  |  |  |  |  |  |  |  | HepSE_bilirubinemia (Hepatotoxicity [1]; Liver): 0; HepSE_cholecystitis (Hepatotoxicity [2]; Liver): 0; HepSE_cholelithiasis (Hepatotoxicity [3]; Liver): 0; HepSE_cirrhosis (Hepatotoxicity [4]; Liver): 0; HepSE_elevated liver function tests (Hepatotoxicity [5]; Liver): 0; HepSE_hepatic failure (Hepatotoxicity [6]; Liver): 0; HepSE_hepatic necrosis (Hepatotoxicity [7]; Liver): 0; HepSE_hepatitis (Hepatotoxicity [8]; Liver): 0; HepSE_hepatomegaly (Hepatotoxicity [9]; Liver): 0; HepSE_jaundice (Hepatotoxicity [10]; Liver): 0; HepSE_liver disease (Hepatotoxicity [11]; Liver): 0; HepSE_liver fatty (Hepatotoxicity [12]; Liver): 0; HepSE_liver function tests abnormal (Hepatotoxicity [13]; Liver): 0; HepSE_Combined Scores (Hepatotoxicity [14]; Liver): 0
10 | CCCCCCCC(=O)CC[C@@H]1[C@@H](C/C=C\CCCC(=O)O)[C@@H](O)C[C@H]1O [UNOPROSTONE] | 0 | 0 | 0 | 0 | 0 | 0 | 0 | 0 | 0 | 0 | 0 | 0 | 0 | 0 | 
11 | COc1cccc2c1C(=O)c1c(O)c3c(c(O)c1C2=O)C[C@@](O)(C(C)=O)C[C@@H]3O[C@H]1C[C@H](N)[C@H](O)[C@H](C)O1 [DAUNORUBICIN] | 0 | 0 | 0 | 0 | 0 | 0 | 0 | 0 | 1 | 0 | 0 | 0 | 0 | 1 | 
12 | COc1cc(NCc2ccc3nc(N)nc(N)c3c2C)cc(OC)c1OC [TRIMETREXATE] | 0 | 0 | 0 | 0 | 0 | 0 | 0 | 0 | 0 | 0 | 0 | 0 | 0 | 0 | 
13 | NCCCNCCSP(=O)(O)O [AMIFOSTINE] |  |  |  |  |  |  |  |  |  |  |  |  |  |  | HepSE_bilirubinemia (Hepatotoxicity [1]; Liver): 0; HepSE_cholecystitis (Hepatotoxicity [2]; Liver): 0; HepSE_cholelithiasis (Hepatotoxicity [3]; Liver): 0; HepSE_cirrhosis (Hepatotoxicity [4]; Liver): 0; HepSE_elevated liver function tests (Hepatotoxicity [5]; Liver): 0; HepSE_hepatic failure (Hepatotoxicity [6]; Liver): 0; HepSE_hepatic necrosis (Hepatotoxicity [7]; Liver): 0; HepSE_hepatitis (Hepatotoxicity [8]; Liver): 0; HepSE_hepatomegaly (Hepatotoxicity [9]; Liver): 0; HepSE_jaundice (Hepatotoxicity [10]; Liver): 0; HepSE_liver disease (Hepatotoxicity [11]; Liver): 0; HepSE_liver fatty (Hepatotoxicity [12]; Liver): 0; HepSE_liver function tests abnormal (Hepatotoxicity [13]; Liver): 0; HepSE_Combined Scores (Hepatotoxicity [14]; Liver): 0
14 | CC(=O)NS(=O)(=O)c1ccc(N)cc1 [SULFACETAMIDE] | 0 | 0 | 0 | 0 | 0 | 0 | 1 | 0 | 0 | 0 | 0 | 0 | 0 | 1 | 
15 | COc1cc2nc(N3CCN(C(=O)C4COc5ccccc5O4)CC3)nc(N)c2cc1OC (stereo not drawn) [DOXAZOSIN] | 0 | 0 | 1 | 0 | 0 | 0 | 0 | 1 | 0 | 1 | 0 | 0 | 1 | 4 | 
16 | CCC(=O)C(CC(C)N(C)C)(c1ccccc1)c1ccccc1 (stereo not drawn) [METHADONE] | 0 | 0 | 0 | 0 | 0 | 0 | 0 | 0 | 0 | 0 | 0 | 0 | 0 | 0 | 
17 | CCc1nc(N)nc(N)c1-c1ccc(Cl)cc1 [PYRIMETHAMINE] | 0 | 0 | 0 | 0 | 0 | 0 | 0 | 0 | 0 | 0 | 0 | 0 | 0 | 0 | 
